How the values were obtained:
[1] = tested on: Vero cells; experiment: cells; settings: Chlorocebus sabaeus, read-out: IC50 in Vero cells *MTT Assay
[2] = tested on: PHA + IL-2 PBM cells; experiment: cells; settings: Homo sapiens, PBMC, read-out: IC50 in PHA + IL-2 PBM cells *MTT Assay
[3] = tested on: HIV-1BaL; experiment: microbe, parasite or virus in culture; settings: Human immunodeficiency virus 1, Macrophage, in Homo sapiens
Protocol: Macrophages were isolated as follows: Monocytes were isolated from buffy coats of HIV-1 negative, HBV/HCV-negative donors with density gradient centrifugation coupled with enrichment for CD14+ monocytes with Rosette Sep antibody cocktail (Stem Cell Technologies, Vancouver, British Columbia). Cells were seeded at a concentration of 1.0×10^6 cells/well for 1 hr at 37° C. and 5% CO2 to confer plastic adherence prior to repeated washes with 1×PBS. Macrophages were maintained in medium containing 100 U/ml macrophage colony-stimulating factor (m-CSF, R&D Systems, Minneapolis, Minn.), supplemented with 20% fetal calf serum (Atlanta Biologicals, Lawrenceville, Ga.) and 1% penicillin/streptomyocin (Invitrogen, Carlsbad, Calif.) for 7 days (37° C., 5% CO2) prior to testing.
Macrophage infections: Macrophages were cultured as described above for 7 days. […] 4 hrs after infection, virus was removed and drug-containing medium was returned to the cultures. Supernatants were collected on day 7 post-infection and HIV-1 p24 was quantified via ELISA (Zeptometrix Corporation, Buffalo, N.Y.). EC50 analysis was performed using CalcuSyn software (BioSoft Corporation, Cambridge, UK).

[4] = tested on: PHA+IL-2 stimulated primary human lymphocytes; experiment: Proliferation and viability of PHA+IL-2 stimulated primary human lymphocytes; type: cell-based; settings: PHA+IL-2 stimulated lymphocytes, 5 days
Protocol: The effect of various Jak inhibitors on proliferation and viability of PHA or PHA+IL-2 stimulated primary human lymphocytes was evaluated using the techniques described above.
For all experiments, cells were incubated with media alone or drug-containing medium for 5 days prior to assessment of cell count and viability. Data are mean and standard deviations for at least three independent experiments conducted with at least 4 pooled donors, and duplicates within each experiment.

[5] = tested on: wild-type HIV-1xxLAI; experiment: Antiviral potency in primary human lymphocytes, wild type; type: cell-based; settings: Human immunodeficiency virus 1, Lymphocyte, xxLAI, primary human lymphocytes

N#CC[C@H](C1CCCC1)n1cc(-c2ncnc3[nH]ccc23)cn1 [Jakafi, Ruxolitinib]
IC50 [1]: 29.3 ± 3.7 µM | CC50 [2]: 3.1 ± 1.7 µM | EC50 ([3]; read-out: Anti-HIV-1 EC50 in acutely infected MΦ): 0.3 ± 0.1 µM | EC90 ([3]; read-out: Anti-HIV-1 EC90 in acutely infected MΦ): 3.1 ± 1.8 µM | proliferation versus cells exposed to media alone ([4]; 1.0 μM): significantly inhibited | viability versus cells exposed to media alone ([4]; all concentrations): not significantly different | EC50 ([5]; read-out: EC50): 0.3 ± 0.3 µM | EC90 ([5]; read-out: EC90): 6.1 ± 7.6 µM

From patent US20190134039A1, “ANTIVIRAL JAK INHIBITORS USEFUL IN TREATING OR PREVENTING RETROVIRAL AND OTHER VIRAL INFECTIONS” (EMORY UNIVERSITY, priority 2011, published 2019)
